# Columns and labels:
# [1] = Effect in the treatment of estrogen-dependent diseases, keto form compared with hydroxy compound
# aromatase [2] = biological target: T1, aromatase (Homo sapiens, UniProt P11511); test: Inhibition of aromatase activity, placenta microsomes, substrate androstenedione 100 nM (Example 4); assay type: biochemical
# T1 construct: suspension of human placenta microsomes as a source of aromatase enzyme; from tissue; host or cells: human placenta microsomes
# T1 sequence (P11511 1-503): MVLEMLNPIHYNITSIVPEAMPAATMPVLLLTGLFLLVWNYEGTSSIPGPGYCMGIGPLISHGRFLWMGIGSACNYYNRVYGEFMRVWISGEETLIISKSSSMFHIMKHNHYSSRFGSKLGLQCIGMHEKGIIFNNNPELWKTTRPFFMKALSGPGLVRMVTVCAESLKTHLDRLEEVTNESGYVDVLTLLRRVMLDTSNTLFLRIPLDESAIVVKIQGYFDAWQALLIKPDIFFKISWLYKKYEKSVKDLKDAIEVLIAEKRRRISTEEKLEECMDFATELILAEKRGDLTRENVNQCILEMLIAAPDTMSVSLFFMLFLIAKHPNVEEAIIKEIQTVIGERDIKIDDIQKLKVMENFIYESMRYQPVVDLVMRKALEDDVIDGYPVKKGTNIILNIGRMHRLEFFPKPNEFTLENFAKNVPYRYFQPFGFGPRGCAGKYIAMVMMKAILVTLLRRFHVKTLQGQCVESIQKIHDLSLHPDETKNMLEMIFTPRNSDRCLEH
# [3] = Storage stability of the prepared acid; assay type: physicochemical
# aromatase [4] = biological target: T1, aromatase; test: Inhibition of aromatase activity, placenta microsomes, substrate androstenedione 10 nM (Example 3); assay type: biochemical; conditions: 10 min
# Description: Inhibitor tests were carried out with a suspension of human placenta microsomes as a source of aromatase enzyme. The substrate used in these competitive inhibition tests was androstenedione.
# Experimental conditions for enzyme inhibition
# enzyme source: placenta microsomes
# substrate: androstenedione (10 nM)
# tracer: ^3 H-androstenedione
# Co-substrate: NADPH-regenerating system
# The substrate, ^3 H-androstenedione was incubated in the presence of aromatase enzyme with and without the acid inhibitor. The aromatization of androstenedione to estradiol was measured by the release of ^3 H2 O in the process of aromatization. Aromatase activity in the presence of 9-hydroxy-10(trans)-12(cis)-octadecadienoic acid was compared with that of a control group without this inhibiting additive. Aromatase activity is shown as percent of reaction in table 2.
"activity at 1 µg/mL (aromatase [2]; 10 min, inhibitor 1 mg/l, androstenedione 100 nM, 10 minutes, average value ± S.D. (n = 3), without inhibitor 100 ± 9.1, read-out: Aromatase activity (% reaction) with inhibitor) [%]","activity at 10 µg/mL (aromatase [2]; 10 min, inhibitor 10 mg/l, androstenedione 100 nM, 10 minutes, average value ± S.D. (n = 3), without inhibitor 100 ± 8.1, read-out: Aromatase activity (% reaction) with inhibitor) [%]","activity at 100 µg/mL (aromatase [2]; 10 min, inhibitor 100 mg/l, androstenedione 100 nM, 10 minutes, average value ± S.D. (n = 3), without inhibitor 100 ± 5.5, read-out: Aromatase activity (% reaction) with inhibitor) [%]","inhibition of aromatase (in words) (aromatase [2]; Example 4, table 4)","aromatase inhibiting effect relative to the acid in hydroxy form (aromatase [2]; from tables 2 and 4, displacement with respect to the concentration of the inhibitor)","activity at 1 µg/mL (aromatase [4]; inhibitor 1 mg/l, without inhibitor 100 ± 9.1, read-out: Aromatase Activity (% reaction) with inhibitor) [%]","activity at 10 µg/mL (aromatase [4]; inhibitor 10 mg/l, without inhibitor 100 ± 8.1, read-out: Aromatase Activity (% reaction) with inhibitor) [%]","activity at 100 µg/mL (aromatase [4]; inhibitor 100 mg/l, without inhibitor 100 ± 5.5, read-out: Aromatase Activity (% reaction) with inhibitor) [%]",SMILES,effect by comparison with the hydroxy compound [1] [fold],stability compared with the product of Example 1 [3],storage stability ([3]; even at minus 20° C)
58.3 ± 3.6,19.3 ± 3.4,6.2 ± 2.9,stronger aromatase inhibiting effect,about 10 times stronger,,,,CCCCC/C=C\C=C\C(=O)CCCCCCCC(=O)O [9-oxo-10(trans)-12(cis)-octadecadienic acid],10,equally unstable as the product of Example 1,
,,,,,94.4 ± 1.2,53.8 ± 3.8,16.2 ± 3.2,CCCCC/C=C\C=C\C(O)CCCCCCCC(=O)O (stereo not drawn) [9-hydroxy-10(trans)-12(cis)-octadecadienic acid],,,only storable to a limited extent even at minus 20 °C

# — patent US5102912A, “Hydroxyoctadecadienic acid for the treatment of estrogen-dependent disease” (Kanoldt Arzneimittel GmbH, priority 1990, dated 1992)
